Data taken from ChEMBL document CHEMBL1152667, “Synthesis and radiopharmacological investigation of 3-[4'-[(18)F]fluorobenzylidene]indolin-2-one as possible tyrosine kinase inhibitor” (Bioorg Med Chem, 2009).

Columns and labels:
Assay type in all cases: ADME, organism-based
[1] = Biodistribution in Wistar rat thyroid gland at 1.7 MBq, iv administered as single dose measured after 5 mins post-injection by gamma counting; details: in vivo
[2] = Biodistribution in Wistar rat stomach at 1.7 MBq, iv administered as single dose measured after 5 mins post-injection by gamma counting; details: in vivo
Kidney = test: Biodistribution in Wistar rat kidney at 1.7 MBq, iv administered as single dose measured after 10 mins post-injection by gamma counting; details: in vivo
Lung = test: Biodistribution in Wistar rat lung at 1.7 MBq, iv administered as single dose measured after 10 mins post-injection by gamma counting; details: in vivo
Liver [3] = test: Biodistribution in Wistar rat liver at 1.7 MBq, iv administered as single dose measured after 10 mins post-injection by gamma counting; details: in vivo
[4] = Biodistribution in Wistar rat urine at 1.7 MBq, iv administered as single dose measured after 30 mins post-injection by gamma counting; details: in vivo, 0.5 h
Spleen [5] = test: Biodistribution in Wistar rat spleen at 1.7 MBq, iv administered as single dose measured after 60 mins post-injection by gamma counting; details: in vivo, 1 h
Liver [6] = test: Biodistribution in Wistar rat liver at 1.7 MBq, iv administered as single dose measured after 60 mins post-injection by gamma counting; details: in vivo, 1 h
[7] = Ratio of drug level in harderian gland to blood in Wistar rat at 1.7 MBq, iv administered as single dose measured after 5 mins post-injection
Heart [8] = test: Biodistribution in Wistar rat heart assessed as standard uptake value at 1.7 MBq, iv administered as single dose measured after 1 min post-injection by gamma counting; details: in vivo
Heart [9] = test: Biodistribution in Wistar rat heart assessed as standard uptake value at 1.7 MBq, iv administered as single dose measured after 30 mins post-injection by gamma counting; details: in vivo, 0.5 h
Femur [10] = test: Biodistribution in Wistar rat femur assessed as standard uptake value at 1.7 MBq, iv administered as single dose measured after 30 mins post-injection by gamma counting; details: in vivo, 0.5 h
[11] = Biodistribution in Wistar rat brown adipose tissue assessed as standard uptake value at 1.7 MBq, iv administered as single dose measured after 60 mins post-injection by gamma counting; details: in vivo, 1 h
Femur [12] = test: Biodistribution in Wistar rat femur assessed as standard uptake value at 1.7 MBq, iv administered as single dose measured after 60 mins post-injection by gamma counting; details: in vivo, 1 h
Pancreas = test: Biodistribution in Wistar rat pancreas assessed as standard uptake value at 1.7 MBq, iv administered as single dose measured after 5 mins post-injection by gamma counting; details: in vivo
Liver [13] = test: Biodistribution in Wistar rat liver assessed as standard uptake value at 1.7 MBq, iv administered as single dose measured after 5 mins post-injection by gamma counting; details: in vivo
Blood = test: Biodistribution in Wistar rat blood assessed as standard uptake value at 1.7 MBq, iv administered as single dose measured after 10 mins post-injection by gamma counting; details: in vivo
Spleen [14] = test: Biodistribution in Wistar rat spleen at 1.7 MBq, iv administered as single dose measured after 1 min post-injection by gamma counting; details: in vivo
Adrenal gland = test: Biodistribution in Wistar rat adrenal gland assessed as standard uptake value at 1.7 MBq, iv administered as single dose measured after 10 mins post-injection by gamma counting; details: in vivo

`O=C1Nc2ccccc2/C1=C/c1ccc([18F])cc1` showed a Drug uptake [1] of 0.08 %ID, a Drug uptake [2] of 0.94 %ID and a Drug uptake (Kidney) of 2.28 %ID. The Drug uptake (Lung) was 0.66 %ID, the Drug uptake (Liver [3]) was 17.84 %ID and the Drug uptake [4] was 11.23 %ID. It also gave a Drug uptake (Spleen [5]) of 0.04 %ID, a Drug uptake (Liver [6]) of 5.98 %ID and a Kp at 5 min [7] of 4.4. The SUV (Heart [8]) was 2.52%, the SUV (Heart [9]) was 0.44% and the SUV (Femur [10]) was 0.28%. The SUV [11] was 0.63%, the SUV (Femur [12]) was 0.19% and the SUV (Pancreas) was 1.66%. It also gave an SUV (Liver [13]) of 3.74%, an SUV (Blood) of 0.47% and a Drug uptake (Spleen [14]) of 0.31 %ID. For the same compound, the SUV (Adrenal gland) was 3.2%.
